Laboratory results: US6603023B2 (priority 1996, dated 2003)
Like-named read-outs stand apart in the source and are kept apart here. Marks after values point to notes of the source that are not given here.

Experiments:
[1] = system: CCRF-CEM human T-cell acute lymphoblastic leukemia cell line; assay: XTT cytotoxicity (cell growth inhibition), CCRF-CEM
Outline: (§1)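 Suspension leukemic cells (CCRF-CEM, P388 and drug-resistant sublines kept under the selecting agent) were seeded at 5×10^4 cells/mL in RPMI-1640 with 10% FBS at 37 °C. After 72 h drug exposure in duplicate, PMS-XTT was added for 4 h. Absorbance was read at 450 and 630 nm.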

[2] = system: P388/Adr; assay: cells; assay type: cell-based, murine; details: Table 1C
Outline: as §1

[3] = system: human mammary carcinoma MX-1 xenograft
Method: DMSO was used as a vehicle for epothilones. Each mouse received ≦40 μL DMSO in all experiments.
Athymic nude mice (nu/nu) were used for MX-1 and MCF-7/Adr human mammary carcinoma xenografts. Mice were obtained from Taconic Laboratory Animals and Service (Germantown, N.Y.: outbred, Swiss background).

[4] = 15 mg/kg i.p. Q2Dx5 from day 7, day 11
[5] = 15 mg/kg i.p. Q2Dx5 from day 7, day 13
[6] = 15 mg/kg i.p. Q2Dx5 from day 7, day 15
[7] = 15 mg/kg i.p. Q2Dx5 from day 7, day 17
[8] = 25 mg/kg i.p. Q2Dx5 from day 7, day 11
[9] = 25 mg/kg i.p. Q2Dx5 from day 7, day 13
[10] = 25 mg/kg i.p. Q2Dx5 from day 7, day 15
[11] = 25 mg/kg i.p. Q2Dx5 from day 7, day 17
[12] = 35 mg/kg i.p. Q2Dx5 from day 9, day 13
[13] = 35 mg/kg i.p. Q2Dx5 from day 9, day 15
[14] = 35 mg/kg i.p. Q2Dx5 from day 9, day 17
[15] = 35 mg/kg i.p. Q2Dx5 from day 9, day 19
[16] = 35 mg/kg i.p. d8,10,12,14,16, day 10
[17] = 35 mg/kg i.p. d8,10,12,14,16, day 12
[18] = 35 mg/kg i.p. d8,10,12,14,16, day 14
[19] = 35 mg/kg i.p. d8,10,12,14,16, day 16
[20] = 35 mg/kg i.p. d8,10,12,14,16, day 18

C/C1=C/C[C@@H](/C(C)=C/c2csc(C)n2)OC(=O)C[C@H](O)C(C)(C)C(=O)[C@H](C)[C@@H](O)[C@@H](C)CCC1 [Desoxyepothilone B, desoxyepothilone B]
IC50 [1]: 9.5 nM | IC50 ([1]; Table 1, XTT): 9 nM | IC50 ([1]; Table 1A, XTT, 72 h): 9.5 nM | IC50 ([1]; Table 6, single determinations): 9.5 nM | IC50 ([1]; Table 7, CEM): 9.5 nM | folds of resistance (IC50 ratio vs parent cell line) ([2]; P388/Adr vs P388/O): (0.62x) | IC50 ([2]; XTT, 72 h, read-out: IC50): 4.2 nM | Toxicity Death ([3]; 15 mg/kg i.p. Q2Dx5 from day 7): 0/6 | Average Body Weight Change [3, 4]: +0.8 g | Average Tumor Size (T/C) [3, 4]: 0.65 | Average Body Weight Change [3, 5]: +1.1 g | Average Tumor Size (T/C) [3, 5]: 0.46 | Average Body Weight Change [3, 6]: +1.6 g | Average Tumor Size (T/C) [3, 6]: 0.49** | Average Body Weight Change [3, 7]: +1.5 g | Average Tumor Size (T/C) [3, 7]: 0.41** | Toxicity Death ([3]; 25 mg/kg i.p. Q2Dx5 from day 7): 0/6 | Average Body Weight Change [3, 8]: +0.4 g | Average Tumor Size (T/C) [3, 8]: 0.38* | Average Body Weight Change [3, 9]: +0.7 g | Average Tumor Size (T/C) [3, 9]: 0.11** | Average Body Weight Change [3, 10]: +1.0 g | Average Tumor Size (T/C) [3, 10]: 0.05*** | Average Body Weight Change [3, 11]: +0.7 g | Average Tumor Size (T/C) [3, 11]: 0.04**** | mice tumor-free (no detectable tumor) on day 35 ([3]; 25 mg/kg i.p. days 7-15): one out of six | average tumor volume reduction ([3]; 25 mg/kg i.p. days 7-15, day 17): ≤ 96% | mice tumor-free (no detectable tumor) on day 35 ([3]; 25 mg/kg i.p. days 7-15, listed as dEpo B): #One out of six mice with no detectable tumor on day 35; | mice with no detectable tumor on day 16 ([3]; 35 mg/kg Q2Dx5 i.p. from day 8): two out of ten | mice with no detectable tumor on day 26 ([3]; 35 mg/kg d8-16 then 40 mg/kg Q2Dx5 from day 18): five out of ten | mice remaining tumor-free on day 60 ([3]; 35 mg/kg d8-16 then 40 mg/kg Q2Dx5 from day 18, of ten): three | mice tumor-free up to day 80 ([3]; 35 mg/kg d8-16 then 40 mg/kg d18-26 i.p.): 3/10 | mice with markedly suppressed tumors ([3]; 35 mg/kg d8-16 then 40 mg/kg d18-26 i.p., sacrificed day 50): 7/10 | lethality ([3]; 35 mg/kg i.p. Q2Dx5 from day 8): 0/10 | mice survived ([3]; 35 mg/kg i.p. Q2Dx5 from day 8): 10/10 | mice with tumor non-detectable on day 18 ([3]; 35 mg/kg i.p. Q2Dx5 from day 8): 3 out of 10 | tumor volume reduction ([3]; 35 mg/kg i.p. Q2Dx5 from day 8): 98% | Toxicity Death ([3]; 35 mg/kg i.p. Q2Dx5 from day 9): 0/6 | Tumor Disapp. ([3]; 35 mg/kg i.p. Q2Dx5 from day 9): 3/6 | Average Body Weight Change [3, 12]: -1.7 g | Average Tumor Size (T/C) [3, 12]: 0.35 | Average Body Weight Change [3, 13]: -2.1 g | Average Tumor Size (T/C) [3, 13]: 0.14 | Average Body Weight Change [3, 14]: -2.1 g | Average Tumor Size (T/C) [3, 14]: 0.04 | Average Body Weight Change [3, 15]: -2.4 g | Average Tumor Size (T/C) [3, 15]: 0.02 | # Mice Died ([3]; 35 mg/kg i.p. d8,10,12,14,16): 3/10 | Tumor Disappearance ([3]; 35 mg/kg i.p. d8,10,12,14,16): 0/10 | Average Body Weight Change [3, 16]: -0.1 g | Average Tumor Volume (T/C) [3, 16]: 0.42 | Average Body Weight Change [3, 17]: +0.7 g | Average Tumor Volume (T/C) [3, 17]: 0.28 | Average Body Weight Change [3, 18]: -0.3 g | Average Tumor Volume (T/C) [3, 18]: 0.07 | Average Body Weight Change [3, 19]: -1.7 g | Average Tumor Volume (T/C) [3, 19]: 0.04 | Average Body Weight Change [3, 20]: -1.6 g | Average Tumor Volume (T/C) [3, 20]: 0.02 | # Died ([3]; 40 mg/kg i.p. d18-26, extended after d8-16): 0/10 | Average Tumor Disappearance Duration (Day) ([3]; 40 mg/kg i.p. d18-26, extended after d8-16, (5/10)): 44(5/10) Day | Average Body Weight Change ([3]; 40 mg/kg i.p. d18-26, extended after d8-16, day 20): -1.7 g
